In assay [1] the test system is PSA cells. In words: SEM and TEM observation of PSA cells. It counts as cell-based, Pseudomonas syringae pv. actinidiae. As to conditions: 1 MIC, 2 h, 28° C. As for the experimental part: Scanning electron microscopy (SEM) and Transmission electron microscopy (TEM) were used to observe the morphological and intracellular changes of the PSA cells treated with the AMP synthesized in Example 1. PSA cells (10^7 CFU/mL) were incubated with the AMP (1 MIC) for 2 h at 28° C.; while sterile water was used as a control. For SEM, cell samples were prepared according to a protocol of Juba et al. (2015, Helical cationic antimicrobial peptide length and its impact on membrane disruption) and observed under a Hitachi SU8100 SEM (Tokyo, Japan). For TEM, cell samples were prepared according to a method of Nguyen et al. (2021, Comparison of two transmission electron microscopy methods to visualize drug-induced alterations of gram-negative bacterial morphology) and observed under a Hitachi HT-7700 TEM (Tokyo, Japan).

Assay [2] deals with PSA. The assay can be described thus: Control effect and bacterial load on kiwifruit leaves inoculated with PSA. It is filed as in vivo, Pseudomonas syringae pv. actinidiae on kiwifruit. The following applies: 1 MIC; for disease control effect: kiwifruit leaves inoculated with PSA, lesion area vs control; for bacterial load in leaves: kiwifruit leaves, 96 h. As to the method: The method of Bai et al. (2022, Application of phage therapy against red-fleshed kiwifruit canker) was selected to evaluate a control effect of the AMP synthesized in Example 1 on kiwifruit leaves inoculated with PSA. The leaves were injured with a syringe needle and covered with a filter paper (ϕ=1 cm) containing 50 μL of PSA (10^8 CFU/mL). After 2 h, 1 MIC of AMP or AS was added; while the PBS was used as a control. The kiwifruit plants were cultured for 96 h at 25±1° C., 70±5% relative humidity (RH), and a photoperiod of 16 h: 8 h. The lesion area and the number of colonies were counted every 48 h, and the disease control effect (%) was calculated using the following formula: Control effect (%)=(1−Lesion areatreatment/Lesion areacontrol)×100%
Bacterial load in leaves was determined according to a colony count method of Barrett-Manako et al. (2021, Real-time PCR and droplet digital PCR are accurate and reliable methods to quantify Pseudomonas syringae pv. actinidiae biovar 3 in kiwifruit infected plantlets). Leaves were collected, washed with sterile water, and homogenized with PBS. A homogenate was inoculated into a King's B solid medium (supplemented with nitrofurantoin at 12.5 μg/mL and cephalexin at 40 μg/mL). After incubation at 28° C. for 48 h, the colonies were counted to calculate lg CFU/cm^2. Colonies were confirmed by PCR using specific primers for the 16S-23SrDNA-ITS sequence of PSA (Table 1), and sequenced.

Assay [3] relates to intracellular esterase of PSA. In words: Intracellular esterase activity (FDA fluorescence). It counts as cell-based, Pseudomonas syringae pv. actinidiae. As to conditions: 1 MIC, at 120 min. As for the experimental part:
The intracellular esterase activity of PSA was measured with fluorescein diacetate (FDA). PSA cells (10^7 CFU/mL) were added to a black 96-well microplate preloaded with 1 MIC of the AMP synthesized in Example 1. The cells in each well were mixed with 10 mM of the FDA and incubated at 28° C. for 10 min. Fluorescence intensity was measured at excitation wavelengths of 480 nm/530 nm using the SpectraMax i3 microplate reader (Molecular Devices, San Jose, USA), respectively.

Assay [4] has as its system PSA. In words: Drug resistance of PSA to the AMP (repeated subculture, MIC change). It counts as cell-based, Pseudomonas syringae pv. actinidiae. As to conditions: repeated treatment at 0.75, 1 and 1.25 MIC, 14 d. As for the experimental part: Microbial resistance was determined according to a method of Steczko et al. (2009, Microbial inactivation properties of a new antimicrobial/antithrombotic catheter lock solution (citrate/methylene blue/parabens)). 10^5 CFU/mL of a PSA bacteria solution was treated with AMPs at final concentrations of 0.75 MIC, 1 MIC, and 1.25 MIC. After 24 h of incubation, the MIC was determined by microdilution assay. Subculture and MIC determination were conducted by the same method every day for a total of 14 d. The drug resistance of PSA was evaluated by observing changes of the MIC.

The subject of assay [5] is DNA replication (dnaA and dnaB) and DNA repair (recA and recN) genes. The assay can be described thus: RT-qPCR of DNA replication and repair genes. It counts as cell-based, Pseudomonas syringae pv. actinidiae. As to conditions: 1 MIC, 28° C., 2 h. As to the method: PSA cells (10^7 CFU/mL) were incubated with 1 MIC of the AMP synthesized in Example 1 at 28° C. for 2 h. At the same time, sterile water was set as a control. A total RNA was extracted, and cDNA was synthesized using PrimeScript RT Master Mix (Takara, Dalian, China). The expression of DNA replication (dnaA and dnaB) and DNA repair (recA and recN) genes were detected by reverse transcription-quantitative PCR (RT-qPCR). The RT-qPCR was conducted with a mixed system including 10 μL of Masser Mix (Tsinke, Beijing, China), 0.8 μL of each primer (0.5 μM), 0.4 μL (200 ng) of the cDNA, and 8 μL of water. The reaction was conducted by: at 50° C. for 2 min; initial denaturation at 95° C. for 2 min; and at 95° C. for 15 sec, at 55° C. for 30 sec, and at 72° C. for 30 sec, conducting 40 cycles. 16S rRNA was used as a reference gene. A relative expression level of genes was calculated by a 2-AACT method.
(Quantitative PCR measures a nucleic acid by following its amplification.)

The subject of assay [6] is defense genes (PR1 and PR-10). In words: RT-qPCR of defense genes in kiwifruit leaves. It counts as in vivo. As to conditions: PSA-inoculated kiwifruit leaves, 48 h. As for the experimental part: The expression of defense genes (PRI and PR-10) in kiwifruit leaves was detected by RT-qPCR. The leaves were collected 48 h after AMP inoculation with PSA, and a total RNA was extracted from three leaf discs for each replicate, and cDNA was synthesized. The RT-qPCR was conducted using the method in Example 4. Actin was used as a reference gene. […] A relative expression level of genes was calculated by a 2-AACT method.

Assay [7] relates to PSA cells. The assay can be described thus: Calcium ion leakage of PSA cells. The following applies: after 120 min of treatment; increased from 8.70 μM. It is filed as cell-based, Pseudomonas syringae pv. actinidiae.
Assay [8] has as its system PSA. It counts as cell-based, Pseudomonas syringae pv. actinidiae. The following applies: 3 h. As for the experimental part: The EC50 was determined according to a method of Gupta et al. (2015, Short, synthetic cationic peptides have antibacterial activity against Mycobacterium smegmatis by forming pores in membrane and synergizing with antibiotics). The PSA cells (10^5 CFU/mL) in a logarithmic growth phase were added to a 96-well microplate that was preloaded with different concentrations of the AMP synthesized in Example 1 (0.39 μg/mL to 12.5 μg/mL) or AS (62.5 μg/mL to 2,000 μg/mL), and then incubated at 28° C. for 3 h. A serially diluted mixture was spread on the LB agar plate, incubated for 48 h, and the colonies were counted. The EC50 was calculated by plotting percent killing as a function of the lg of AMP concentrations.

Assay [9] has as its system PSA. In words: MIC determination by broth microdilution. It is filed as cell-based, Pseudomonas syringae pv. actinidiae. The following applies: PSA 10^5 CFU/mL, LB, 28° C., 24 h, OD600. As for the experimental part:
The MIC was determined by a broth microdilution method (Mishra et al., 2017, Individual and combined effects of engineered peptides and antibiotics on Pseudomonas aeruginosa biofilms). PSA cells in a logarithmic growth phase were diluted to 10^5 colony forming units (CFU)/mL with an LB liquid medium (including 10 g/L peptone, 5 g/L yeast extract powder, and 10 g/L NaCl), and added into a 96-well microplate that was preloaded with different concentrations of the AMP synthesized in Example 1 (1.56 μg/mL to 200 μg/mL) or agricultural streptomycin (AS) (125 μg/mL to 4,000 μg/mL). After incubation at 28° C. for 24 h, an absorbance at 600 nm (OD600) of each sample was measured using a Multiskan FC microplate reader (Thermo Fisher Scientific, Waltham, USA); while sterile water was used as a control.

The test system of assay [10] is PSA genomic DNA. In words: DNA gel retardation. The following applies: 200 ng DNA, 15.63 ng to 1,000 ng AMP, 28° C., 30 min. It counts as binding, Pseudomonas syringae pv. actinidiae. As for the experimental part:
A PSA genomic DNA (200 ng) was incubated with different amounts of the AMP (15.63 ng to 1,000 ng) synthesized in Example 1 at 28° C. for 30 min. At the same time, sterile water was set as a control. After electrophoresis, DNA gel retardation was observed under UV illumination using a Bio-Rad Universal Hood II Gel Doc XR system (Hercules, USA).

Assay [11] concerns PSA. It is filed as cell-based, Pseudomonas syringae pv. actinidiae. As to the method: The samples in the wells with a concentration of greater than 1 MIC during the MIC determination in step 1 were spread on an LB agar plate (including 10 g/L peptone, 5 g/L yeast extract powder, 10 g/L NaCl, and 15 g/L agar), and the colonies were counted after incubation at 28° C. for 48 h.

The test system of assay [12] is PSA cells. In words: Membrane depolarization with DiSC3(5). It counts as cell-based, Pseudomonas syringae pv. actinidiae. As to conditions: 1 MIC, 28° C., 30 min. As for the experimental part:
Membrane depolarization was measured using a membrane potential-sensitive cyano dye 3,3′-dipropylthiadicarbocyanine iodide (DiSC3(5)) according to a method of Juba et al. (2015, Helical cationic antimicrobial peptide length and its impact on membrane disruption). PSA cells (10^7 CFU/mL) were suspended in a PBS containing 50 μg/mL of the DiSC3(5) and added to a black 96-well microplate. The microplate was incubated in a SpectraMax i3 microplate reader (Molecular Devices, San Jose, USA), and monitored until fluorescence leveled off. 1 MIC of the AMP synthesized in Example 1 was added and incubated at 28° C. for 30 min; while the PBS was used as a control. The fluorescence intensity of each sample was measured at excitation/emission wavelengths of 622 nm/670 nm, respectively.

Assay [13] deals with PSA cells. In words: ROS level (DCFH-DA fluorescence). It is filed as cell-based, Pseudomonas syringae pv. actinidiae. As for the experimental part:
The reactive oxygen species (ROS) level of PSA treated with the AMP synthesized in Example 1 was evaluated using a ROS detection kit (LabLead, Beijing, China). PSA cells (10^7 CFU/mL) were incubated with different concentrations of the AMPs (0.5 MIC to 2 MICs) at 28° C. for 2 h. At the same time, sterile water was set as a control. The cells were resuspended in PBS and then incubated with 10 μM of 2′,7′-dichlorodihydrofluorescein diacetate (DCFH-DA) for 30 min at 28° C. Fluorescence intensity was measured at excitation/emission wavelengths of 485 nm/525 nm using a SpectraMax i3 microplate reader (Molecular Devices, San Jose, USA).

Assay [14] relates to PSA cell membrane. In words: Membrane permeabilization (OD260 of filtrates). It is filed as cell-based, Pseudomonas syringae pv. actinidiae. As to conditions: 1 MIC, 120 min, relative to Triton X-100; increased from 2.61%. As to the method: Membrane permeabilization was determined according to a method of Dang et al. (2020, Antimicrobial peptides from the edible insect Musca domestica and their preservation effect on chilled pork). PSA cells (10^7 CFU/mL) in a logarithmic growth phase were incubated with 1 MIC of the AMP synthesized in Example 1 at 28° C. for 120 min. The resulting cultures were filtered through a 0.22 μm membrane and OD260 value of the filtrates were determined. 10 mM of a phosphate-buffered saline (PBS) and Triton X-100 were used as negative and positive controls, respectively. The membrane permeabilization was calculated according to the following formula: Permeabilization (%)=(OD260 AMP/OD260 Triton)×100%.

“Also recorded” adds a separate entry of the source. Read-outs that look alike come from different tables or passages of the source. No end group written: not given here.

By EC50 is commonly meant the concentration giving half of the maximal effect. By MIC is commonly meant the lowest concentration found to suppress growth. In general, MBC refers to the lowest tested concentration that kills the bacteria rather than only halting them. A high value points to less potent killing.

On to “WWKLLRKL-NH2 [AMP, Trp-Trp-Lys-Leu-Leu-Arg-Lys-Leu-NH2]”, for which the “cell morphology and intracellular changes (SEM/TEM)” value in [1] is reported as “notable alterations in cell morphology”. Also, in assay [2], the disease control effect is recorded as 70.53% and the “bacterial load in leaves” value was determined as 2.95 lg CFU/cm^2. In assay [3], the “esterase (FDA) fluorescence intensity relative to control” value was 0.34 times that of the control. Further, the “drug resistance of PSA (change of MIC)” value in assay [4] is “no drug resistance of PSA to AMP is observed; also recorded: no change was found in the MIC”. In assay [5], the “reduction of dnaA expression level vs control” value stood at 80.64%, the “reduction of dnaB expression level vs control” value turned out to be 57.51%, the “reduction of recA expression level vs control” value was 35.28% and the “reduction of recN expression level vs control” value was found to be 39.23%. In addition, in [6], the “expression level of PR 1 relative to control” value is 1.38 times that of the control group and the “expression level of PR-10 relative to control” value is 1.74 times that of the control. In addition, in assay [7], the calcium ion leakage was determined as 60.87 µM. For the same substance, the EC50 in assay [8] is 1.67 µg/mL. The substance further displayed an MIC in [9] of 3.13 µg/mL. In addition, the “binding with PSA genomic DNA (gel retardation)” value in assay [10] is “bind to the genomic DNA of PSA and retard the migration of DNA in a concentration-dependent manner”. In [11] (48 h), this substance yielded an MBC of 6.25 µg/mL. The “membrane depolarization (DiSC3(5) fluorescence)” value in assay [12] is on record as “significantly induced an increase in DiSC3 (5) fluorescence”. In assay [13] (0.5 MIC to 2 MICs), the “ROS fluorescence intensity, dose dependence” value is reported as “increased in a dose-dependent manner”. Moreover, in [13] (2 MIC, 28° C., 2 h), the “ROS fluorescence intensity relative to control” value is recorded as 4.22 times that of the control. Also, in [14], the “permeabilization of the PSA cell membrane” value was found to be 11.44%.
Regarding “agricultural streptomycin [AS, reference compound]”, in [2], the disease control effect stood at 55.80% and the “bacterial load in leaves” value was found to be 4.48 lg CFU/cm^2. For the same substance, the MIC in assay [9] came to 500 µg/mL. Further, the minimum bactericidal concentration (MBC) in assay [11] (LB agar plate, 28° C., 48 h colony count) is reported as 1,000 μg/mL.

For the origin of these results see patent publication US12448414B2, “Antimicrobial peptide (AMP) for controlling Pseudomonas syringae pv. actinidiae (PSA) and preparation method and use thereof” (Anhui Agricultural University, priority 2023, dated 2025).
